Test results from US8283373B2, “Inhibitors of cytosolic phospholipase A2” (Pfizer Inc., priority 2005, dated 2012).

Columns and labels:
[1] = tested on: TXB2; assay: Rat Whole Blood Assay (A23187-stimulated TXB2); type: cell-based; settings: Rattus norvegicus; A23187 5 μM
Procedure, shortened: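 Heparinized male Sprague-Dawley rat blood pre-incubated 15 min at 37 °C with compound or DMSO, then stimulated with 5 μM (final) A23187 for 10 min at 37 °C. Stopped with 20 mM EDTA; TXB2 in methanol-extracted plasma measured by ELISA.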

[2] = target: T1, cPLA2α (Homo sapiens, UniProt P47712); assay: GLU Micelle Assay; type: biochemical
T1 sequence (P47712 1-749): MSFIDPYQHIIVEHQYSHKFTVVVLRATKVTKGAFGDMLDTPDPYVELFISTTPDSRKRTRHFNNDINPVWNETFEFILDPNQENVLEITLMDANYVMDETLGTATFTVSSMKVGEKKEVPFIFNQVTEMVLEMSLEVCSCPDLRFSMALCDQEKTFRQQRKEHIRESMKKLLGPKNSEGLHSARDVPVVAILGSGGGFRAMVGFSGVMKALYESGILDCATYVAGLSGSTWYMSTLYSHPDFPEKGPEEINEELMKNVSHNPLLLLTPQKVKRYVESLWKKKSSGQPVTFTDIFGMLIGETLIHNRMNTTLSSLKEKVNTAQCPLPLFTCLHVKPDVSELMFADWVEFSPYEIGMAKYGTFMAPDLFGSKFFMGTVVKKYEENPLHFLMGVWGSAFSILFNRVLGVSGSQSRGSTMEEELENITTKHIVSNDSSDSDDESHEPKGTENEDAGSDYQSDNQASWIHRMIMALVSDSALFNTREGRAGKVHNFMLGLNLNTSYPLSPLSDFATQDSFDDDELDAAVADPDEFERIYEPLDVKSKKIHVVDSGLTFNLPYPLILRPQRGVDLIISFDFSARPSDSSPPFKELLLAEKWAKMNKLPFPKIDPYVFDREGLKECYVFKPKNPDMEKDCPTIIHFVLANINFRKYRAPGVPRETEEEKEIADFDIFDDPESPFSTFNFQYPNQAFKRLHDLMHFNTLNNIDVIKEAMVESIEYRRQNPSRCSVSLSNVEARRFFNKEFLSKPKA
Procedure, shortened: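 Fluorogenic micelle assay with 1 μg/ml cPLA2α and 90 μM GLU substrate plus 120 μM DTPC in 940 μM Triton X-100, 50 mM Hepes pH 7.4, 0.3 mM EDTA, 1 mM CaCl2, 300 mM KCl. Fluorescence (ex 355/em 460) was read every 4 min for 84 min. Percent inhibition came from slopes relative to positive and negative controls.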

[3] = tested on: serum thromboxane B2; assay: Thromboxane B2 levels in rats with FeCl3 induced thrombosis; type: in vivo, rat; settings: rats subjected to ferric chloride injury, ELISA
Experimental: Blood was collected from rats that were dosed with vehicle, the compound of Example 14 or the compound of Example 25, and subjected to the ferric chloride Injury protocol above. Blood was collected from the vena cava and blood coagulation was allowed to take place for 1 hour at 37 degree Celsius. Serum was then isolated and serum thromboxane B2 levels were determined by ELISA.

[4] = tested on: experimental autoimmune encephalomyelitis (EAE); assay: Experimental autoimmune encephalomyelitis (EAE) model of multiple sclerosis; type: in vivo, mouse; settings: administered from the time of immunization, or in mice with or close to EAE
Experimental: Six groups of B6 mice were immunized with MOG/CFA and injected with pertussis toxin to induce experimental autoimmune encephalomyelitis (EAE), an animal model of Multiple sclerosis. Three groups of mice were treated with vehicle, 4-{3-[1-benzhydryl-5-chloro-2-(2-{[(2,6-dimethylbenzyl)sulfonyl]amino}ethyl)-1H-indol-3-yl]propyl}benzoic acid (Compound A), or 4-{2-[1-benzhydryl-5-chloro-2-(2-{[(3,4-dichlorobenzyl)sulfonyl]amino}-ethyl)-1H-indol-3-yl]ethoxy}benzoic acid (Compound B) from the day of Immunization (orally, 100 mg/kg, twice/day). Another three groups of mice were treated with vehicle, Compound A or Compound B starting on the day of EAE onset (day 15) (orally, 100 mg/kg, twice/day). […] The results are shown in the Table below, wherein mean clinical score is a mean of clinical evaluation of each animal for that particular day.
Animals are Scored as Follows:
• 0—no clinical signs of EAE (no paralysis) • 1—paralysis of tail • 2—paralysis of tail and partial hind leg paralysis • 3—paralysis of tail and complete hind leg paralysis • 4—paralysis of tail, complete hind leg paralysis and a partial front leg paralysis • 5—moribund animal (all four limbs paralyzed, lack of responsiveness, these mice were immediately euthanized).
In addition, the compounds of Examples 14 and 25 were also found to be efficacious in the mouse experimental autoimmune encephalomyelitis (EAE) model of multiple sclerosis. As shown by the data in the Table below, these compounds led to a delayed onset of disease and reduced severity of disease when administered orally in doses as low as 2.5 mg/kg.

[5] = tested on: FeCl3-induced arterial thrombosis; assay: FeCl3-induced model of arterial thrombosis; type: in vivo; settings: rat, 25 mg/kg oral gavage 2 h before FeCl3 injury
Experimental: Two hours prior to induction of vascular injury, Sprague Dawley outbreed rats (80-100 gram of body weight) received 4-(3-{5-chloro-1-(diphenylmethyl)-2-[2-({[2-fluoro-6-(trifluoromethyl)benzyl]sulfonyl}amino)ethyl]-1H-indol-3-yl}propyl)benzoic acid (Example 14) or 4-(3-{5-chloro-1-(diphenylmethyl)-2-[2-({[2-(trifluoromethoxy)benzyl]sulfonyl}amino)ethyl]-1H-indol-3-yl}propyl)benzoic acid (Example 25) at a dose of 25 mg/kg by oral gavage. The total volume of gavage was 0.5 ml. The control group of animals had been treated with only vehicle. Fifteen minutes before vascular injury rats were anesthetized by an intramuscular injection of a ketamine/xylazyne mixture. Following anesthesia the left carotid artery was dissected and exposed for further measurements. For induction of prothrombotic injury, a round piece of filter paper (2 mm in diameter) soaked in 10% of FeCl3 solution was applied onto the wall of the exposed vessel. After 5 minutes the filter paper was removed and the 1PRB perivasular Doppler flow probe (Transonic Systems Inc.) was secured around the carotid artery to measure blood flow. Blood flow was recorded for a total period of 30 minutes using Transonic Flow Meter (model TS420, Transonic Systems Inc.) and Windaq data acquisition software.

[6] = tested on: Human platelet aggregation; assay: Platelet Function Analyzer (PFA-100) study; type: cell-based; settings: whole human blood
Experimental: Human platelet aggregation was studied using the platelet function analyzer (PFA-100®). Human blood was collected from volunteers who had denied taking any platelet inhibitory medications over the previous two weeks. Blood was collected in 3.2% sodium citrate Vacutainer tubes (Becton Dickinson). Tubes were inverted 5 times and the blood was transferred to 15 ml polypropylene conical tubes. […] Tubes were inverted 10 times to mix, and allowed to sit at room temperature for 10 minutes prior to run in PFA-100. The manufacturers protocol was followed for the PFA-100 using Collagen/Epinephrine cartridges (0.5% DMSO alone in whole blood gave closure times of 125+/−13.9 seconds). Maximum closure time is 300 seconds, as set by the manufacturer.
All compounds were efficacious in the platelet function assay.

[7] = tested on: serum thromboxane B2; assay: Thromboxane B2 levels in the ApoE KO mouse model; type: in vivo; settings: ApoE KO mice, 10 mg/kg by oral gavage; vehicle 267.9±34.3
Experimental: Blood was collected through the retro-orbital siunus and left to coagulate at 37° C. for one hour. Serum was then isolated and assayed for thromboxane B2 by ELISA.
In a separate experiment, ApoE KO mice were dosed with vehicle or the compound of Example 25 at 10 mg/kg by oral gavage. Blood was collected through the retro-orbital siunus and left to coagulate at 37° C. for one hour. Serum was then isolated and assayed for thromboxane B2 by ELISA.

Row | Compound | IC50 [1] [nM] | IC50 [2] [nM] | serum thromboxane B2 levels (FIG. 3) [3] | prevention of EAE / reduction of clinical severity [4] | blood flow and thrombus formation (FIG. 2) [5] | platelet aggregation in human blood, in vitro (PFA-100, FIG. 1) [6] | PFA-100 closure time ([6]; Collagen/Epinephrine cartridges, 1.25 μg/ml) | serum Thromboxane concentration [7] [ng/mL] | efficacy in PFA-100 platelet function assay ([6]; at concentrations as low as 0.3 μg/ml)
1 | O=C(O)c1ccc(CCCc2c(CCNS(=O)(=O)Cc3c(F)cccc3C(F)(F)F)n(C(c3ccccc3)c3ccccc3)c3ccc(Cl)cc23)cc1 [Example 14, 4-(3-{5-chloro-1-(diphenylmethyl)-2-[2-({[2-fluoro-6-(trifluoromethyl)benzyl]sulfonyl}amino)ethyl]-1H-indol-3-yl}propyl)benzoic acid] | 20 | 30 | reduction of serum thromboxane B2 levels | can prevent EAE | improved blood flow and reduction of thrombus formation | inhibition of platelet aggregation | increased closure time | – | –
2 | O=C(O)c1ccc(CCCc2c(CCNS(=O)(=O)CCc3ccccc3C(F)(F)F)n(C(c3ccccc3)c3ccccc3)c3ccc(Cl)cc23)cc1 [Example 15, 4-[3-(5-chloro-1-(diphenylmethyl)-2-{2-[({2-[2-(trifluoromethyl)phenyl]ethyl}sulfonyl)amino]ethyl}-1H-indol-3-yl)propyl]benzoic acid] | 120 | 68 | – | – | improved blood flow and reduction of thrombus formation | – | – | – | –
3 | O=C(O)c1ccc(CCCc2c(CCNS(=O)(=O)Cc3ccccc3OC(F)(F)F)n(C(c3ccccc3)c3ccccc3)c3ccc(Cl)cc23)cc1 [Example 25, 4-(3-{5-chloro-1-(diphenylmethyl)-2-[2-({[2-(trifluoromethoxy)benzyl]sulfonyl}amino)ethyl]-1H-indol-3-yl}propyl)benzoic acid] | 30 | 13 | reduction of serum thromboxane B2 levels | can prevent EAE | – | inhibition of platelet aggregation | – | 9.4 ± 5.0 | efficacious
